Test results published in US7834019B2, “Substituted pyrazolo[3,4-d]pyrimidinone derivatives” (Banyu Pharmaceutical Co., Ltd., priority 2006, dated 2010).

Experiments:
[1] = system: Human colon cancer cells WiDr; assay: Tumor growth-inhibitory effect, WiDr tumor implanted subcutaneously in nude rats; type: in vivo, F344/N Jcl-mu nude rats; conditions: compound alone 0.75 mg/kg/hr, continuous intravenous injection for 8 hours
Description: Pharmaceutical Test 4 (Tumor Growth-Inhibitory Effect)
Human colon cancer cells WiDr (gotten from ATCC) were implanted into the subcutaneous area of the back of F344/N Jcl-mu nude rats. Eight days after the implantation, gemcitabine (50 mg/kg, Gemzar injection, Eli-Lilly) was intravenously administered to them; and after 24 hours, a test compound was dissolved in a solvent (5% glucose) and given to them through continuous intravenous injection for 8 hours. The tumor volume (0.5×(major diameter)×(minor diameter)^2) was determined on day 0, 3, 6, 10 and 13. Day 0 means the day on which gemcitabine was administered. The relative tumor volume is a relative value, as calculated on the basis of the tumor volume of 1 on day 0. The tumor growth percentage (% T/C) was obtained according to the following formula:
When the tumor volume change from day 0 in the group subjected to test compound administration is more than 0 (>0): % T/C=[(tumor volume change in the test compounds on day 3, 6, 10, 13)/(tumor volume change in the control on day 3, 6, 10, 13)]×100. When the tumor volume change from day 0 in the group subjected to test compound administration is less than 0 (<0): % T/C=[(tumor volume change in the test compounds on day 3, 6, 10, 13)/(tumor volume […])]×100.

[2] = system: Human non-small-cell lung cancer cells (NCI-H1299); assay: Radiation (X-ray) sensitizing effect, DNA fragmentation (subG1, FACS) in NCI-H1299 cells; type: cell-based
Excerpt: Pharmaceutical Test 5 (Method of Determining Drug Potency with Cells (Radiation (X-Ray) Sensitizing Effect))
Fetal bovine serum (FBS) was gotten from Morgate; RPMI 1640 medium and 0.25% trypsin EDTA were from Invitrogen; cycle test plus DNA reagent kit was from Becton Dickinson; and nylon net filter was from Millipore.
Human non-small-cell lung cancer cells (NCI-H1299) were gotten from ATCC.
NCI-H1299 cells were suspended in 10% FBS-added RPMI 1640 medium, and the cell suspension was applied to a 6-well Nunclondelta-processed plastic plate bought from Nunc, in an amount of 100,000 cell/2 ml/well, and incubated overnight in 5% CO2-95% air at 37° C. Using Softex's M-150WE, the cells were irradiated with 5000 R X-rays, and then further incubated in 5% CO2-95% air at 37° C. for 16 hours. A test compound was stepwise diluted with DMSO, and applied to a plate with the X-ray-processed cells sowed thereon, in an amount of 2 μL. This was incubated in 5% CO2-95% air at 37° C. for 8 hours, and then the culture was partly taken out. 0.25% trypsin was added to the cells remaining on the plate, in an amount of 600 μL, and statically kept at room temperature to prepare a single cell suspension. […] Using Becton Dickinson's FACS Calibur, the DNA amount in each cell was quantitatively determined according to a FACS process, and the ratio of the cells having caused DNA fragmentation was determined.

## C=CCn1c(=O)c2cnc(Nc3ccc(N4CCN(C)CC4)cc3)nc2n1-c1cccc(C(C)(C)O)n1 [Example 53, 2-allyl-1-[6-(1-hydroxy-1-methylethyl)pyridin-2-yl]-6-{[4-(4-methylpiperazin-1-yl)phenyl]amino}-1,2-dihydro-3H-pyrazolo[3,4-d]pyrimidin-3-one]
[1]; day 3
  % T/C day 3: 86%
[1]; day 6
  % T/C day 6: 74%
[1]; day 10
  % T/C day 10: 81%
[1]; day 13
  % T/C day 13: 89%
[2]; X-ray (5000 R, 16 hours before) + compound for 8 hours
  DNA Fragmentation-Inducing Effect (H1299) (subG1, %): 54.8%
[2]; compound alone, without X-ray, 8 hours
  DNA Fragmentation-Inducing Effect (H1299) (subG1, %): 3.9%
